Source: patent publication US20050020501A1, “Methods of modulating the activity of mura” (SmithKline Beecham Corporation and SmithKline Beechm p.l.c., priority 2000, published 2005)
≈ marks a conversion by molar mass, not a printed value. Entries after “also recorded” stand apart in the source; their conditions may differ. Structures can show the parent of a compound that is named as a salt. Where two headings read alike, the source gives them in different places.

Key:
[1] = molecular target: T1, EPSP Synthase (S. pneumoniae) (Streptococcus pneumoniae serotype 4, UniProt Q9S400); experiment: EPSPS kinetic assay, fluorescence coupled detection of inorganic phosphate release; format: biochemical; settings: for Inhibition type vs. S3P / Inhibition type vs. PEP: EPSP synthase; for Inhibition type vs. S3P: varied substrate S3P; for Inhibition of EPSPS (in words): rosolic acid tested up to 2 mM; for Inhibition type vs. PEP: varied substrate PEP
T1 construct: made in house
T1 sequence (Q9S400 whole entry): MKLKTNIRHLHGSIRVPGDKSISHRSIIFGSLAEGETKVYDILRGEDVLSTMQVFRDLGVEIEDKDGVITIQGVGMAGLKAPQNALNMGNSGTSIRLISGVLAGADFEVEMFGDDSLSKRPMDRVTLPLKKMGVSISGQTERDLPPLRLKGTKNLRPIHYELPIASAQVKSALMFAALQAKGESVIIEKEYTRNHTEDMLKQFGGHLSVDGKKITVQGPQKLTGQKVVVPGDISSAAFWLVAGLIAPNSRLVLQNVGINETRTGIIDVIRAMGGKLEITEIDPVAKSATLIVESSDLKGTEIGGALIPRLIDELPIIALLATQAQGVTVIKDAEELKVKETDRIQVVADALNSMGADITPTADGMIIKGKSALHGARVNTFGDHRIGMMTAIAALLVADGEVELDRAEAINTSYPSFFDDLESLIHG
Source text: (§1) All chemicals including ATA and its salt forms are from Aldrich. SKF-26488-W3 was isolated as a high-throughput screen hit against EPSPS. Escherichia coli MurA (Marquardt, et al., J. Bacteriol., Vol. 174: 5748-5752 (1992)) and Streptococcus pneumoniae EPSPS (Du, et al., Eur. J. Biochem., Vol. 267: 222-227 (2000)) were expressed and purified as described previously.
(§2) The assays for both EPSPS and MurA are based on the detection of inorganic phosphate release. A fluorescence coupled assay was used for EPSPS and was performed in 100 mM HEPES, pH 7.0, 1 mM NH4Cl, 100 mM KCl. (Du, et al., Eur. J. Biochem., Vol. 267: 222-227 (2000)). MurA was assayed in 50 mM HEPES, pH 7.5, 1 mM DTI using the Malachite Green reagent (Lanzetta, et al., Anal. Biochem., Vol. 100: 95-97 (1979)). The Ki values were determined with fixed concentration of one substrate and varying concentrations of the other substrate and inhibitor. Data were analyzed using GraFit v4.09 (Erithacus Software Ltd.).

[2] = molecular target: T2, MurA (E. coli) (Escherichia coli, UniProt P0A749); experiment: MurA kinetic assay, Malachite Green detection of inorganic phosphate release; format: biochemical; settings: for Ki / Inhibition type vs. PEP / Inhibition type vs. UDPAG: MurA
T2 construct: made in house
T2 sequence (P0A749 whole entry): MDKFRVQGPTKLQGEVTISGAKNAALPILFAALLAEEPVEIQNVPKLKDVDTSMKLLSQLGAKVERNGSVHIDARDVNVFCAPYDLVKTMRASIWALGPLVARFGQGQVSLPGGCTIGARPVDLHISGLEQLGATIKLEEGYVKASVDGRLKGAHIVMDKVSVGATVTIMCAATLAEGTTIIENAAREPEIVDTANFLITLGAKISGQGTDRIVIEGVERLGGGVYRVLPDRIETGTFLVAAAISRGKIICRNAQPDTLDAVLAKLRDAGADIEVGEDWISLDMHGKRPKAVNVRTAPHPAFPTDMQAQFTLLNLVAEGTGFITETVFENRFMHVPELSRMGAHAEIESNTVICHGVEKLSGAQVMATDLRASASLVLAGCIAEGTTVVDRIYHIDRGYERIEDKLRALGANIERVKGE
Source text: as §1, §2

[3] = tested on: S. pneumoniae 100993; experiment: Antibacterial activity, minimum inhibitory concentration; format: cell-based, Streptococcus pneumoniae; settings: for Effect of adding aromatic amino acids and PABA on antibacterial activity in minimal media: minimal media with versus without aromatic amino acids and PABA; for Antibacterial activity compared across media: TH media and minimal media with and without supplements
Method: The antibacterial activity of ATA against S.pneumoniae100993 was measured in Todd Hewitt media, minimal media, and minimal media+aromatic amino acids (100 mg/L) and p-aminobenzoic acid (PABA) (0.2 mg/L). Glyphosate, chloramphenical and ciprofloxacin were controls.

[4] = Streptococcus pneumoniae, 100993, read-out: Minimum Inhibitory Concentration, Minimal media
[5] = Streptococcus pneumoniae, 100993, read-out: Minimum Inhibitory Concentration, Minimal media w/aa's + PABA
[6] = Streptococcus pneumoniae, 100993, read-out: Minimum Inhibitory Concentration, TH
[7] = Streptococcus pneumoniae, 100993, Chemically Defined Medium for Group A Streptococci without aromatic amino acids and PABA, read-out: Minimum Inhibitory Concentration, Minimal media
[8] = Streptococcus pneumoniae, 100993, JRH Strep media with aromatic amino acids and PABA, read-out: Minimum Inhibitory Concentration, Minimal media w/aa's + PABA
[9] = Streptococcus pneumoniae, 100993, Todd Hewitt broth, read-out: Minimum Inhibitory Concentration, TH

N.N.N.O=C(O)C1=CC(=C(c2ccc(O)c(C(=O)O)c2)c2ccc(O)c(C(=O)O)c2)C=CC1=O [ATA ammonium salt]
Inhibition type vs. S3P [1]: competitive inhibitors vs. S3P
Inhibition of EPSPS (in words) [1]: specific inhibitors of EPSPS

O=C(O)C1=CC(=C(c2ccc(O)c(C(=O)O)c2)c2ccc(O)c(C(=O)O)c2)C=CC1=O [ATA sodium salt]
Inhibition type vs. S3P [1]: competitive inhibitors vs. S3P
Inhibition of EPSPS (in words) [1]: specific inhibitors of EPSPS

O=C(O)C1=CC(=C(c2ccc(O)c(C(=O)O)c2)c2ccc(O)c(C(=O)O)c2)C=CC1=O [Aurin Tricarboxylic Acid]
Inhibition type vs. PEP [1]: Noncompetitive
Inhibition type vs. S3P [1]: Competitive
Inhibition type vs. S3P ([1]; listed as aurin tricarboxylic acid): competitive inhibitors vs. S3P
Ki ([1]; Ki vs. S3P, EPSPS, competitive vs. S3P, range given for ATA and its sodium and ammonium salts together): 2.8 to 4.5 µM
Potency against MurA relative to RA ([2]; ATA versus RA, MurA from Escherichia coli): ~200 fold
Ki ([2]; Ki vs. UDPAG, varied substrate UDPAG): 0.23 µM
Inhibition type vs. PEP ([2]; varied substrate PEP): Non-specific inhibition
Inhibition type vs. UDPAG ([2]; varied substrate UDPAG): Competitive
Inhibition type vs. UDPAG ([2]; varied substrate UDPAG, listed as ATA): competitive vs UDPAG
Inhibition pattern of MurA versus both substrates (in words) ([2]; versus UDPAG and PEP): specific inhibition patterns versus both substrates
MIC [3, 4]: 2 µg/mL (≈ 4.74 µM)
MIC [3, 5]: 4 µg/mL
MIC [3, 6]: > 128 µg/mL
Activity in minimal media relative to TH media ([3]; minimal media versus TH media): more than 64 fold
Effect of adding aromatic amino acids and PABA on antibacterial activity in minimal media [3]: not reversed

O=C(N[C@H](CO)[C@H](O)c1ccc([N+](=O)[O-])cc1)C(Cl)Cl [Chloramphenicol]
MIC [3, 7]: 2 µg/mL (≈ 6.19 µM)
MIC [3, 8]: 2 µg/mL
MIC [3, 9]: 2 µg/mL (≈ 6.19 µM)
Antibacterial activity compared across media [3]: substantially the same

O=C(O)c1cn(C2CC2)c2cc(N3CCNCC3)c(F)cc2c1=O [Ciprofloxacin]
MIC [3, 7]: 2 µg/mL (≈ 6.04 µM)
MIC [3, 8]: 2 µg/mL
MIC [3, 9]: 2 µg/mL (≈ 6.04 µM)
Antibacterial activity compared across media [3]: substantially the same

O=C(O)CNCP(=O)(O)O [Glyphosate]
MIC [3, 4]: 512 µg/mL (≈ 3030 µM)
MIC [3, 5]: > 512 µg/mL
MIC [3, 6]: > 512 µg/mL
Antibacterial activity in TH media (in words) ([3]; TH media): no antibacterial activity
Effect of adding aromatic amino acids and PABA on antibacterial activity in minimal media [3]: reversed

O=C1C=CC(=C(c2ccc(O)cc2)c2ccc(O)cc2)C=C1 [Rosolic Acid]
Inhibition type vs. PEP [1]: No inhibition (up to 2 mM)
Inhibition type vs. S3P [1]: No inhibition (up to 2 mM)
Inhibition of EPSPS (in words) [1]: does not inhibit EPSPS up to 2 mM
Inhibition type vs. PEP ([2]; varied substrate PEP): Mixed type inhibition
Ki ([2]; varied substrate PEP, mixed type inhibition, second constant, read-out: Ki′ vs. PEP): 273 µM
Ki ([2]; varied substrate PEP, mixed type inhibition, read-out: Ki vs. PEP): 10.9 µM
Inhibition type vs. UDPAG ([2]; varied substrate UDPAG): Competitive
Inhibition type vs. UDPAG ([2]; varied substrate UDPAG, listed as RA): competitive vs UDPAG; also recorded: competitive inhibitor versus UDPAG, although a poor one
Ki ([2]; varied substrate UDPAG, read-out: Ki vs. UDPAG): 44.7 µM

O=C(O)C1=CC(=C(c2ccc(O)c(C(=O)O)c2)c2ccc(O)c(C(=O)O)c2)C=CC1=O [SKB-26488-W3, aurin tricarboxylic acid]
IC50 against EPSPS ([1]; high-throughput screening of EPSPS): in the μM range
